According to ChEMBL document CHEMBL4706474, “Tetrahydro-2-naphthyl and 2-Indanyl Triazolopyrimidines Targeting Plasmodium falciparum Dihydroorotate Dehydrogenase Display Potent and Selective Antimalarial Activity” (J Med Chem, 2016):

Test system: not listed separately
Experiment: Inhibition of N-terminal His6-tagged Plasmodium falciparum DHODH expressed in Escherichia coli BL21 using L-DHO as substrate and CoQ as co-substrate by DCIP dye based spectrophotometric assay
Conditions: not given

In order of rising IC50:
1. Cc1cc(NC2CCc3ccccc3C2)n2nc(C(C)(F)F)nc2n1 (stereo not given)  21 nM
2. Cc1cc(NC2CCc3cc(F)ccc3C2)n2nc(C(F)(F)F)nc2n1 (stereo not given)  77 nM
3. Cc1cc(NC2Cc3ccc(Br)cc3C2)n2nc(C(C)(F)F)nc2n1 (stereo not given)  110 nM
4. Cc1cc(NC2Cc3cc(F)c(F)cc3C2)n2nc(C(F)(F)F)nc2n1  120 nM
5. COc1ccc2c(c1)CCC(Nc1cc(C)nc3nc(C(C)(F)F)nn13)C2 (stereo not given)  140 nM
6. Cc1cc(NC2Cc3cc(Cl)c(Cl)cc3C2)n2nc(C(C)(F)F)nc2n1  140 nM
7. Cc1cc(NC2CCc3ccccc3C2)n2nc(C(F)(F)F)nc2n1 (stereo not given)  170 nM
8. Cc1cc(NC2CCc3ccc(Br)cc3C2)n2nc(C(C)(F)F)nc2n1 (stereo in doubt; 14)  640 nM
9. Cc1cc(N[C@@H]2CCc3ccc(Cl)cc3C2)n2nc(C(C)(F)F)nc2n1  790 nM
10. COc1ccc2c(c1)CC(Nc1cc(C)nc3nc(C(C)(F)F)nn13)CC2 (stereo in doubt; 17)  1000 nM
11. Cc1cc(NC2CCc3cc(Cl)ccc3C2)n2nc(C(C)(F)F)nc2n1 (stereo in doubt; 8)  1340 nM
12. Cc1cc(NC2CCc3cc(F)c(F)cc3C2)n2nc(C(C)(F)F)nc2n1 (stereo in doubt; 18)  2300 nM
13. Cc1cc(NC2Cc3ccc(S(C)(=O)=O)cc3C2)n2nc(C(C)(F)F)nc2n1 (stereo not given)  4000 nM
14. Cc1cc(NC2Cc3ccc(S(=O)(=O)N(C)C)cc3C2)n2nc(C(C)(F)F)nc2n1 (stereo not given)  8000 nM

Test system: Plasmodium falciparum
Experiment: Antiplasmodial activity against Plasmodium falciparum 3D7 infected in RBC assessed as reduction in parasitemia incubated for 72 hrs by SYBR green dye-based assay
Format: functional, organism-based
Conditions: Plasmodium falciparum, 3D7, Erythrocyte, 72 h

In order of rising EC50:
1. Cc1cc(NC2CCc3ccccc3C2)n2nc(C(C)(F)F)nc2n1 (stereo not given)  2.8 nM
2. COc1ccc2c(c1)CCC(Nc1cc(C)nc3nc(C(C)(F)F)nn13)C2 (stereo not given)  17 nM
3. Cc1cc(NC2CCc3ccccc3C2)n2nc(C(F)(F)F)nc2n1 (stereo not given)  21 nM
4. Cc1cc(NC2CCc3cc(F)ccc3C2)n2nc(C(F)(F)F)nc2n1 (stereo not given)  66 nM
5. Cc1cc(NC2Cc3cc(F)c(F)cc3C2)n2nc(C(F)(F)F)nc2n1  150 nM
6. Cc1cc(NC2Cc3cc(Cl)c(Cl)cc3C2)n2nc(C(C)(F)F)nc2n1  580 nM
7. Cc1cc(NC2Cc3ccc(Br)cc3C2)n2nc(C(C)(F)F)nc2n1 (stereo not given)  590 nM
8. Cc1cc(N[C@@H]2CCc3ccc(Cl)cc3C2)n2nc(C(C)(F)F)nc2n1  2800 nM
9. Cc1cc(NC2Cc3ccc(S(C)(=O)=O)cc3C2)n2nc(C(C)(F)F)nc2n1 (stereo not given)  6500 nM

Same assay, conditions: rbc

First: Cc1cc(NC2CCc3cc(F)c(F)cc3C2)n2nc(C(C)(F)F)nc2n1 (stereo in doubt; 18)
Second: Cc1cc(NC2CCc3cc(Cl)ccc3C2)n2nc(C(C)(F)F)nc2n1 (stereo in doubt; 8)
The EC50 of the first is higher: greater than 2500 nM for the first, 420 nM for the second. The second is the more potent here.

First: Cc1cc(NC2CCc3ccc(Br)cc3C2)n2nc(C(C)(F)F)nc2n1 (stereo in doubt; 14)
Second: COc1ccc2c(c1)CC(Nc1cc(C)nc3nc(C(C)(F)F)nn13)CC2 (stereo in doubt; 17)
The EC50 of the first is 2.2-fold higher: 1400 nM for the first, 640 nM for the second. The second is the more potent here.

Test system: not listed separately
Experiment: Inhibition of N-terminal His6-tagged Plasmodium vivax DHODH expressed in Escherichia coli BL21 using L-DHO as substrate and CoQ as co-substrate by DCIP dye based spectrophotometric assay
Conditions: not given

In order of rising IC50:
1. Cc1cc(NC2CCc3ccccc3C2)n2nc(C(C)(F)F)nc2n1 (stereo not given)  35 nM
2. COc1ccc2c(c1)CCC(Nc1cc(C)nc3nc(C(C)(F)F)nn13)C2 (stereo not given)  220 nM
3. Cc1cc(NC2CCc3cc(F)ccc3C2)n2nc(C(F)(F)F)nc2n1 (stereo not given)  280 nM

Target: Dihydroorotate dehydrogenase (quinone), mitochondrial (Homo sapiens, UniProt Q02127)
Experiment: Inhibition of N-terminal His6-tagged human DHODH expressed in Escherichia coli BL21 using L-DHO as substrate and CoQ as co-substrate by DCIP dye based spectrophotometric assay
Conditions: not given

Dihydroorotate dehydrogenase (quinone), mitochondrial, sequence (Q02127 whole entry): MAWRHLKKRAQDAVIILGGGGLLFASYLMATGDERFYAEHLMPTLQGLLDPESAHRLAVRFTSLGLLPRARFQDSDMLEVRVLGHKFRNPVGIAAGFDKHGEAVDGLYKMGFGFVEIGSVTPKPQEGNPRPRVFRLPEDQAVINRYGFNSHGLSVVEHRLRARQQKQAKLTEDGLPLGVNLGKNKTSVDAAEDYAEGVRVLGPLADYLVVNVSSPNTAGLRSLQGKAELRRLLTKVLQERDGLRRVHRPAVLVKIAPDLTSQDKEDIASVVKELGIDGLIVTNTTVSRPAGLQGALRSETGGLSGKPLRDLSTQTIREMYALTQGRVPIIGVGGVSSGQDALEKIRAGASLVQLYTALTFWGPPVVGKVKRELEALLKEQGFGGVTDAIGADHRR

`COc1ccc2c(c1)CCC(Nc1cc(C)nc3nc(C(C)(F)F)nn13)C2` (stereo not given) and `Cc1cc(N[C@@H]2CCc3ccc(Cl)cc3C2)n2nc(C(C)(F)F)nc2n1` cannot be ordered by IC50: greater than 100000 nM for the first, greater than 100000 nM for the second.

For `Cc1cc(NC2CCc3ccccc3C2)n2nc(C(F)(F)F)nc2n1` (stereo not given), the IC50 was greater than 100000 nM.

Test system: Plasmodium falciparum
Experiment: Antiplasmodial activity against Plasmodium falciparum 3D7 infected in po dosed NSG mouse assessed as reduction in parasitemia administered twice daily for 4 consecutive days starting from day 3 post-infection and measured 24 hrs post last dose by flow cytometric analysis
Format: functional
Conditions: 3D7, po, 96 h, time 4 day

For `CCN(CC)CCCC(C)Nc1ccnc2cc(Cl)ccc12` (stereo not given) [CHLOROQUINE], the ED90 was 4.3 mg/kg.

Test system: Plasmodium falciparum
Experiment: Antiplasmodial activity against Plasmodium falciparum 3D7 infected in po dosed NSG mouse assessed as blood AUC level require to show 90% reduction in parasitemia administered once daily for 4 consecutive days starting from day 3 post-infection and measured 24 hrs post last dose by flow cytometric analysis
Format: functional, organism-based
Conditions: time 4.0 day

For `CCN(CC)CCCC(C)Nc1ccnc2cc(Cl)ccc12` (stereo not given) [CHLOROQUINE], the AUCED90 was 3.1 µM.hr/day.
